Results published in patent US20050215646A1, “Methods for treating multiple sclerosis and pharmaceutical compositions therefor” (Renovis, Inc., priority 2004, published 2005).

Assays:
CXCR1 = molecular target: T1, CXCR1 (Homo sapiens, UniProt P25024); assay: Migration of CHO-K1 cells expressing CXCR1; format: cell-based; conditions: CHO-K1 cells expressing CXCR1, 2 hours; degree similar to IL-8; FIG. 3
T1 construct: cDNA fragments encompassing chemokine receptor coding regions; expressed in transfected cells; host or cells: CHO-K1 (ATCC CCL-61), transient transfection
T1 sequence (P25024 1-350): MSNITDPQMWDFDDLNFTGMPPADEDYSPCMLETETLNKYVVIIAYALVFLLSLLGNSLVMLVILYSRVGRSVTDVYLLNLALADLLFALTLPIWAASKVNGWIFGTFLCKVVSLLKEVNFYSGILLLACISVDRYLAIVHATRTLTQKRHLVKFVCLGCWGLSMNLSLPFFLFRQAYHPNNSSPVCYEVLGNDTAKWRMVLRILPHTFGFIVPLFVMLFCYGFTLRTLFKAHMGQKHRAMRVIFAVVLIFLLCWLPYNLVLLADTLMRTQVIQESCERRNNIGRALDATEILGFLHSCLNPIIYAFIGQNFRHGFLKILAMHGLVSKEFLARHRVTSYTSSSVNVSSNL
Protocol: (§1) CHO-K1 cells were obtained from American Type Culture Collection (CCL-61) and cultured in Ham's F12 media supplemented with 10% heat inactivated FBS and 100 μg/ml penicillin/streptomycin. cDNA fragments encompassing chemokine receptor coding regions were obtained from cDNAs synthesized from HL-60 cells and/or human peripheral blood mononuclear cells by the polymerase chain reaction. Expression constructs of chemokine receptors were generated by cloning PCR fragments into expression vector pEF6/V5-TOPO (K9610-20, Invitrogen). Transient transfections were carried out with Fugene 6 transfection reagent (1814443, Roche Applied Science) according to the manufacturer's instructions.
(§2) The CHO-chemokine receptor cells were used in migration assays 36 hours following transfection. In vitro migration assays were performed using a Neuroprobe Blindwell migration apparatus (AA12, Neuro Probe, Inc./16008 Industrial Drive, Gaithersburg, Md. 20877) according to the manufacturer's instructions with slight modifications. […]
(§3) Following the migration assays, migrated cells that had adhered to the underside of the filter were quantitated according to the manufacturer's instructions. […] Stained filtered were mounted onto microscope slides and migrated cells in each well were manually counted under 40× magnification.

CXCR6 = molecular target: T2, CXCR6 (Homo sapiens, UniProt O00574); assay: Migration of CHO-K1 cells expressing CXCR6; format: cell-based; conditions: CHO-K1 cells expressing CXCR6, 2 hours; FIG. 3
T2 construct: cDNA fragments encompassing chemokine receptor coding regions; expressed in transfected cells; host or cells: CHO-K1 (ATCC CCL-61), transient transfection
T2 sequence (O00574 whole entry, the tested form may be a part): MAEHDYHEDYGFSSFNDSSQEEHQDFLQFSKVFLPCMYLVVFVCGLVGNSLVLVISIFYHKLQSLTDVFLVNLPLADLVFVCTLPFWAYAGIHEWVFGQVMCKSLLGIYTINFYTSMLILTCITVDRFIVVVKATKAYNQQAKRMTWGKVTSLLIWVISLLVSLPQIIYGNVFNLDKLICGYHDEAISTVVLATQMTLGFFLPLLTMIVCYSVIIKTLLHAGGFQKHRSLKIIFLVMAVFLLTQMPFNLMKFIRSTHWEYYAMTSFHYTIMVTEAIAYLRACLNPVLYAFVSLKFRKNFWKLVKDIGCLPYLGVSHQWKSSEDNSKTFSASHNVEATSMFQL
Protocol: as §1, §2, §3

FMLP receptor = molecular target: T3, FMLP receptor (Homo sapiens, UniProt P21462); assay: Migration of CHO-K1 cells expressing the FMLP receptor; format: cell-based; conditions: 2 hours, FIG. 4
T3 construct: cDNA fragments encompassing chemokine receptor coding regions; expressed in transfected cells; host or cells: CHO-K1 (ATCC CCL-61), transient transfection
T3 sequence (P21462 1-350): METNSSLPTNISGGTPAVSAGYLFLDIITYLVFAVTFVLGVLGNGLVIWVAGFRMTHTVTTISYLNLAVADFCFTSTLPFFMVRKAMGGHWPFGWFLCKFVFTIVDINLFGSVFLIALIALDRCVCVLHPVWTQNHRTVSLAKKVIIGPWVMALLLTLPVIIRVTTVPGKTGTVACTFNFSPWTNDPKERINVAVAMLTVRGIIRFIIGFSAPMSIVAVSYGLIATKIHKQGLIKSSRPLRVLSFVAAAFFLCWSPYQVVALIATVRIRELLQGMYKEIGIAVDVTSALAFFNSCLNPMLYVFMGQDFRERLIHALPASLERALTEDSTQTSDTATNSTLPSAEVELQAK
Protocol: as §1, §2, §3

[1] = system: C57BL/6J mice model of EAE; assay: C57BL/6J mice model of experimental autoimmune encephalomyelitis (EAE), prevention paradigm; format: in vivo, mouse
CXCR3 = molecular target: T4, CXCR3 (Homo sapiens, UniProt P49682); assay: Migration of CHO-K1 cells expressing CXCR3; format: cell-based; set-up: cDNA fragments encompassing chemokine receptor coding regions; expressed in transfected cells; host or cells: CHO-K1 (ATCC CCL-61), transient transfection; conditions: CHO-K1 cells expressing CXCR3, 2 hours; FIG. 3
T4 sequence (P49682 1-368): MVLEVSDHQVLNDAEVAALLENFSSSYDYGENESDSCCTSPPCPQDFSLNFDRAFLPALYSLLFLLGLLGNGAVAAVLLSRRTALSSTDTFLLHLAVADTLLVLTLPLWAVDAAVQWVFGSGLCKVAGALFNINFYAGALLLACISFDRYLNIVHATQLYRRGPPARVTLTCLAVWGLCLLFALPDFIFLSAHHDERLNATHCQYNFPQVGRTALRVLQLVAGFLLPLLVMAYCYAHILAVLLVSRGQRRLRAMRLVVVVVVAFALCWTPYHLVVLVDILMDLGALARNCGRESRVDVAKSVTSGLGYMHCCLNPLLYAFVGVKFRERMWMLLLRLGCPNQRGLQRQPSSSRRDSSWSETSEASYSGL
Protocol: as §1, §2, §3

## CC(C)(C)c1cc(/C=[N+](\[O-])C(C)(C)C)cc(C(C)(C)C)c1O [Compound 1, α-(4-hydroxy-3,5-di-tert-butylphenyl)-N-tert-butylnitrone]
CXCR1
  induction of cell migration: induced migration
CXCR6
  induction of cell migration: induced migration
FMLP receptor
  induction of cell migration: did not induce migration
[1]; 10 mg/kg oral once a day, FIG. 10
  reversal of EAE-associated weight loss: significant effect on reversal
[1]; 10 mg/kg vs Vehicle, Day 26, failing to reach statistical significance (p=0.0513), FIG. 11
  tissue infiltration score (spinal cord, H&E): lower infiltration score than control mice
[1]; oral gavage once a day from 7 days before induction, Days 9-26, FIG. 8
  maximum disease score: significant effect
[1]; oral gavage once a day from 7 days before induction, Days 9-26, FIG. 9
  cumulative disease score: significant effect
[1]; oral gavage once a day, 0.3, 1, 3, 10 mg/kg from 7 days before induction, vs Vehicle, FIG. 7
  disease severity (average clinical scores): significant reduction
CXCR3
  induction of cell migration: induced migration
